Holding throughout (format): functional
The test system of assay [1] is Aspergillus flavus. Kind of assay: Antimicrobial activity against Aspergillus flavus NCIM 524 assessed as growth inhibition by agar streak dilution method.
For assay [2], the system named is Candida albicans. Kind of assay: Antimicrobial activity against Candida albicans NCIM 3102 assessed as growth inhibition by agar streak dilution method.
In assay [3] the test system is Aspergillus flavus. Kind of assay: Antimicrobial activity against Aspergillus flavus NCIM 524 assessed as diameter of growth inhibition zone at 10 ug/disk after 48 hr by paper disk diffusion method. Conditions: NCIM 524, 48 h, read-out: DIZ.
For assay [4], the system named is Candida albicans. Kind of assay: Antimicrobial activity against Candida albicans NCIM 3102 assessed as diameter of growth inhibition zone at 10 ug/disk after 48 hr by paper disk diffusion method. Conditions: NCIM 3102, 48 h, read-out: DIZ. In general terms: Agar diffusion results depend on both activity and mobility in agar.
Assay [5] can be described thus: Antioxidant activity assessed as inhibition of Fe3+/ascorbic acid-induced hydroxyl radical production-mediated 2-deoxyribose degradation after 1 hr.
The test system of assay [6] is Escherichia coli. Kind of assay: Antimicrobial activity against Escherichia coli NCIM 2574 assessed as growth inhibition by agar streak dilution method.
Assay [7] has as its system Staphylococcus aureus. Kind of assay: Antimicrobial activity against Staphylococcus aureus NCIM 5021 assessed as diameter of growth inhibition zone at 100 ug/ml after 24 hr by paper disk diffusion method. Particulars: NCIM 5021, 24 h, read-out: DIZ.
Assay [8] can be described thus: Antioxidant activity assessed as inhibition of NO radical production from sodium nitroprusside after 150 min by Griess reagent analysis.
In assay [9] the test system is Bacillus subtilis. Kind of assay: Antimicrobial activity against Bacillus subtilis NCIM 2999 assessed as diameter of growth inhibition zone at 100 ug/ml after 24 hr by paper disk diffusion method. Conditions: NCIM 2999, 24 h, read-out: DIZ.
Assay [10] relates to Candida albicans. As to the kind of experiment: Antimicrobial activity against Candida albicans NCIM 3102 assessed as diameter of growth inhibition zone at 100 ug/ml after 48 hr by paper disk diffusion method. Particulars: NCIM 3102, 48 h, read-out: DIZ.
In assay [11] the test system is Pseudomonas aeruginosa. Kind of assay: Antimicrobial activity against Pseudomonas aeruginosa NCIM 5029 assessed as growth inhibition by agar streak dilution method.
Assay [12] concerns Radical scavenging activity. Kind of assay: Antioxidant activity assessed as DPPH radical scavenging activity by visible spectrophotometric analysis.
The test system of assay [13] is Staphylococcus aureus. Kind of assay: Antimicrobial activity against Staphylococcus aureus NCIM 5021 assessed as growth inhibition by agar streak dilution method.
The test system of assay [14] is Bacillus subtilis. As to the kind of experiment: Antimicrobial activity against Bacillus subtilis NCIM 2999 assessed as growth inhibition by agar streak dilution method.
The subject of assay [15] is Escherichia coli. As to the kind of experiment: Antimicrobial activity against Escherichia coli NCIM 2574 assessed as diameter of growth inhibition zone at 100 ug/ml after 24 hr by paper disk diffusion method. Conditions: NCIM 2574, 24 h, read-out: DIZ.
Assay [16] is described as follows: Antioxidant activity assessed as inhibition of xanthine-xanthine oxidase generated superoxide anion radical-mediated NBT reduction by spectrophotometric analysis.
In assay [17] the test system is Pseudomonas aeruginosa. Kind of assay: Antimicrobial activity against Pseudomonas aeruginosa NCIM 5029 assessed as diameter of growth inhibition zone at 100 ug/ml after 24 hr by paper disk diffusion method. Particulars: NCIM 5029, 24 h, read-out: DIZ.
The subject of assay [18] is Aspergillus flavus. Kind of assay: Antimicrobial activity against Aspergillus flavus NCIM 524 assessed as diameter of growth inhibition zone at 100 ug/ml after 48 hr by paper disk diffusion method. Particulars: NCIM 524, 48 h, read-out: DIZ.
The test system of assay [19] is Pseudomonas aeruginosa. Kind of assay: Antimicrobial activity against Pseudomonas aeruginosa NCIM 5029 assessed as diameter of growth inhibition zone at 10 ug/disk after 24 hr by paper disk diffusion method. Conditions: NCIM 5029, 24 h, read-out: DIZ.
Assay [20] concerns Escherichia coli. Kind of assay: Antimicrobial activity against Escherichia coli NCIM 2574 assessed as diameter of growth inhibition zone at 10 ug/disk after 24 hr by paper disk diffusion method. Particulars: NCIM 2574, 24 h, read-out: DIZ.
Assay [21] has as its system Bacillus subtilis. As to the kind of experiment: Antimicrobial activity against Bacillus subtilis NCIM 2999 assessed as diameter of growth inhibition zone at 10 ug/disk after 24 hr by paper disk diffusion method. Conditions: NCIM 2999, 24 h, read-out: DIZ.
The test system of assay [22] is Staphylococcus aureus. Kind of assay: Antimicrobial activity against Staphylococcus aureus NCIM 5021 assessed as diameter of growth inhibition zone at 10 ug/disk after 24 hr by paper disk diffusion method. Conditions: NCIM 5021, 24 h, read-out: DIZ.

MIC, zone of inhibition and IC50 data for three molecules are collected here from ChEMBL document CHEMBL3044707, “Synthesis of some new glutamine linked 2,3-disubstituted quinazolinone derivatives as potent antimicrobial and antioxidant agents” (Med Chem Res, 2013).

SMILES strings stand for the structures. Values after ≈ are worked out from the molar mass of the structure shown.

In general, MIC refers to the smallest concentration in the dilution series that meets the test's criterion for growth inhibition. As for `OC(Cn1cncn1)(Cn1cncn1)c1ccc(F)cc1F` [FLUCONAZOLE], the MIC in assay [1] and in [2] was 5 µg/mL (≈ 16.3 µM) in each case. Further, the zone of inhibition at 10 µg/disc worked out at 19 mm in assay [3] and 16 mm in assay [4].
Broadly, the IC50 is the concentration that inhibits the measured activity by half. `COc1ccc(-c2nc3ccccc3c(=O)n2C(=O)CCC(N)C(=O)O)cc1` (stereo not drawn): the IC50 in [5] is 23.4 µg/mL (≈ 61.4 µM); in assay [8], 20.1 µg/mL (≈ 52.7 µM); in assay [12], 18.4 µg/mL (≈ 48.2 µM); in assay [16], 20.1 µg/mL (≈ 52.7 µM). Further, the MIC in [6] stood at 20 µg/mL (≈ 52.4 µM); in assay [1] it was 15 µg/mL (≈ 39.3 µM); in assay [11] it was 25 µg/mL (≈ 65.6 µM); in [2], 25 µg/mL (≈ 65.6 µM); in [13], 30 µg/mL (≈ 78.7 µM); in assay [14], 50 µg/mL (≈ 131 µM). For the same molecule, the zone of inhibition at 100 µg/mL is 14 mm in assay [7]; 10 mm in assay [9]; 10 mm in assay [10]; 11 mm in assay [15]; 13 mm in assay [17]; 14 mm in assay [18].
`CN[C@@H]1[C@H](O[C@H]2[C@H](O[C@H]3[C@H](O)[C@@H](O)[C@H](N=C(N)N)[C@@H](O)[C@@H]3N=C(N)N)O[C@@H](C)[C@]2(O)C=O)O[C@@H](CO)[C@H](O)[C@H]1O` [STREPTOMYCIN]: the zone of inhibition at 10 µg/disc in assay [19] was determined as 14 mm; in [20], 16.5 mm; in assay [21] it was 13.4 mm; in [22], 14.1 mm. Besides, the MIC in assay [6], in assay [11], in assay [13] and in assay [14] was 5 µg/mL (≈ 8.6 µM) in each case.
